Source: patent publication US11510928B2, “Use of mirtazapine in the treatment of inflammatory disorders, autoimmune disease and PBC” (UTI Limited Partnership, priority 2017, dated 2022)
Where “and” joins values, the source holds several entries; their conditions need not be identical. Identical values can stand only once.

How the values were obtained:
PBC patients [1] = assay: THIN database cohort study of PBC patients: decompensation, liver transplant and mortality free survival by drug usage; format: in vivo, human
Text: We conducted a cohort study using The Health Improvement Network (THIN). THIN is one of the largest medical databases in the UK^8, consisting of prospectively gathered electronic medical records from over 11.1 million patients^8. […] Data from participant general practitioners across the UK is exported to the THIN administrators and database, which is updated every 3 months^11. The THIN database records demographic data and clinical events using Read codes, prescription medications, and laboratory values^12.
We identified patients with PBC Read code “J6160” from April 1974 until May 2007. This cohort was followed until May 2012. We excluded patients having overlap syndrome with autoimmune hepatitis or primary sclerosing cholangitis. The first code of PBC identified in the THIN database was considered the index (ie. diagnosis) date. FIG. 10 provides a flow diagram illustrating the selection of the study population. The primary outcome was the first occurrence of one of the three events following the diagnosis of PBC: (1) decompensation of cirrhosis (ascites, spontaneous bacterial peritonitis, hepatic encephalopathy, hepatorenal syndrome, variceal bleeding, jaundice, or hepatocellular carcinoma); (2) liver transplantation; or (3) death.
Read codes were used to identify patients with chronic depression disorder. Chronic depression was defined as follows: (1) never diagnosed with chronic depression; (2) past depression diagnosis prior to 90 days from PBC diagnosis; and (3) current depression diagnosis if a diagnosis was made within 90 days before or after a PBC diagnosis. Using THIN database therapy files, we assessed the impact of anti-depressant medications on outcomes of PBC patients (mortality, decompensation, and liver transplant).
For each anti-depressant medication, use was defined as follows: (1) never used the medication; (2) past use as defined as a previous code for medication use prior to 90 days of PBC diagnosis; and (3) current medication user if the medication code was identified within 90 days before or after a PBC diagnosis. We assessed the effect of each anti-depressant medication on study outcomes separately. Antidepressants were classified as typical or atypical and stratified accordingly. Atypical antidepressants include: Agomelatine, Bupropion and Mirtazapine. While typical antidepressants include the following groups: (a) Selective Serotonin Reuptake Inhibitors (SSRI): Citalopram, Escitalopram, Fluoxetine, Fluvoxamine, Paroxetine and Sertraline; (b) […] (SNRI): Desvenlafaxine, Duloxetine, Minacipran and Venlafaxine; (c) Serotonin modulators: Nefazodone, Trazodone and Vilazodone; (d) Tricyclics and tetracyclics: Amitriptyline, Amoxapine, Clomipramine, Desipramine, Doxepin, Imipramine, Maprotiline, Nortriptyline and Protriptyline, Trimiprramine; (e) Monamine oxidase inhibitors: Isocarboxazid, Phenelzine, Selegiline and Tranylcypromine.
We assessed age at diagnosis of PBC, sex, and the presence of coexisting liver disease (ie. chronic hepatitis either viral, alcoholic, or fatty liver disease; yes/no). Smoking status was classified (current, former, never smoked, or unknown status) at the time of PBC diagnosis, alcohol consumption was classified (current, former, never consumed alcohol, or unknown status) at PBC diagnosis. Ursodeoxycholic acid (UDCA) usage (ever/never recorded) was also determined.
In our primary analysis, we assessed demographic, clinical, and medication variables in the PBC cohort according to depression status. Where appropriate, we used the Fisher Exact test or Chi-Square test for categorical data, and the Kruskal-Wallis or Student's t-test for continuous data. Univariate analysis using Log Rank test and multivariate Cox Proportional Regression models were used to assess the impact of depression or anti-depressant medications on PBC outcomes as defined by death, decompensated cirrhosis, or liver transplant. […]

PBC patients [2] = conditions: human, in vivo; listed as UDCA; cited from earlier work
[3] = URSO usage (ever/never recorded)

Row | Structure (SMILES) | Univariate HR, 10-year decompensation, liver transplant and mortality free survival (PBC patients [1]; current usage vs none) | Univariate HR, 10-year decompensation, liver transplant and mortality free survival (PBC patients [1]; usage prior to PBC diagnosis vs none) | Multivariate model-1 HR (PBC patients [1]; [3]) | Multivariate model-2 HR (PBC patients [1]; [3]) | Univariate HR, 10-year decompensation, liver transplant and mortality free survival (PBC patients [1]; [3]) | Patients with PBC who do not fully respond to treatment (PBC patients [2])
1 | CNCCC(Oc1ccc(C(F)(F)F)cc1)c1ccccc1 (stereo not drawn) [Fluoxetine] | 0.58 | 0.83 |  |  |  | 
2 | C[C@H](CCC(=O)O)[C@H]1CC[C@H]2[C@@H]3[C@@H](O)C[C@@H]4C[C@H](O)CC[C@]4(C)[C@H]3CC[C@]12C [URSO, ursodeoxycholic acid] |  |  | 1.00 | 1.00 | 0.80 | 30% to 40% and 30-40%
